Measured values taken from ChEMBL document CHEMBL3817755, “Design, synthesis and biological evaluation of indazolepyrimidine based derivatives as anticancer agents with anti-angiogenic and antiproliferative activities” (Medchemcomm, 2016).

Key:
K562 [1] = experiment: Growth inhibition of human K562 cells at 10 uM after 48 hrs by SRB assay; type: functional; settings: K562, 48 h, read-out: GI
A549 = experiment: Growth inhibition of human A549/ATCC cells at 10 uM after 48 hrs by SRB assay; type: functional; settings: A549, 48 h, read-out: GI
NCI-H322M = experiment: Growth inhibition of human NCI-H322M cells at 10 uM after 48 hrs by SRB assay; type: functional; settings: read-out: GI
KM12 = experiment: Growth inhibition of human KM12 cells at 10 uM after 48 hrs by SRB assay; type: functional; settings: KM12, 48 h, read-out: GI
[2] = Growth inhibition of human SF295 cells at 10 uM after 48 hrs by SRB assay; type: functional; settings: SF-295, 48 h, read-out: GI
[3] = Growth inhibition of human SF539 cells at 10 uM after 48 hrs by SRB assay; type: functional; settings: SF-539, 48 h, read-out: GI
U-251 = experiment: Growth inhibition of human U251 cells at 10 uM after 48 hrs by SRB assay; type: functional; settings: U-251, 48 h, read-out: GI
SK-MEL-28 = experiment: Growth inhibition of human SK-MEL-28 cells at 10 uM after 48 hrs by SRB assay; type: functional; settings: SK-MEL-28, 48 h, read-out: GI
[4] = Growth inhibition of human UACC257 cells at 10 uM after 48 hrs by SRB assay; type: functional; settings: UACC-257, 48 h, read-out: GI
[5] = Growth inhibition of human OVCAR5 cells at 10 uM after 48 hrs by SRB assay; type: functional; settings: OVCAR-5, 48 h, read-out: GI
[6] = Growth inhibition of human OVCAR8 cells at 10 uM after 48 hrs by SRB assay; type: functional; settings: OVCAR-8, 48 h, read-out: GI
[7] = Growth inhibition of human Caki1 cells at 10 uM after 48 hrs by SRB assay; type: functional; settings: CAKI-1, 48 h, read-out: GI
[8] = Growth inhibition of human RXF393 cells at 10 uM after 48 hrs by SRB assay; type: functional; settings: RXF 393, 48 h, read-out: GI
[9] = Growth inhibition of human TK10 cells at 10 uM after 48 hrs by SRB assay; type: functional; settings: TK-10, 48 h, read-out: GI
MCF7 = experiment: Growth inhibition of human MCF7 cells at 10 uM after 48 hrs by SRB assay; type: functional; settings: MCF7, 48 h, read-out: GI
MDA-MB-231 = experiment: Growth inhibition of human MDA-MB-231 cells at 10 uM after 48 hrs by SRB assay; type: functional; settings: MDA-MB-231, 48 h, read-out: GI
[10] = Growth inhibition of human BT549 cells at 10 uM after 48 hrs by SRB assay; type: functional; settings: BT-549, 48 h, read-out: GI
K562 [11] = experiment: Growth inhibition of human K562 cells after 48 hrs by SRB assay; type: functional; settings: K562, 48 h
[12] = Growth inhibition of human HOP92 cells after 48 hrs by SRB assay; type: functional; settings: HOP-92, 48 h
NCI-H23 = experiment: Growth inhibition of human NCI-H23 cells after 48 hrs by SRB assay; type: functional; settings: NCI-H23, 48 h
NCI-H460 = experiment: Growth inhibition of human NCI-H460 cells after 48 hrs by SRB assay; type: functional; settings: NCI-H460, 48 h
NCI-H522 = experiment: Growth inhibition of human NCI-H522 cells after 48 hrs by SRB assay; type: functional; settings: NCI-H522, 48 h
[13] = Growth inhibition of human COLO205 cells after 48 hrs by SRB assay; type: functional; settings: COLO 205, 48 h
[14] = Growth inhibition of human HCT116 cells after 48 hrs by SRB assay; type: functional; settings: HCT-116, 48 h
[15] = Growth inhibition of human SF295 cells after 48 hrs by SRB assay; type: functional; settings: SF-295, 48 h
[16] = Growth inhibition of human LOXIMVI cells after 48 hrs by SRB assay; type: functional; settings: LOX IMVI
MDA-MB-435 = experiment: Growth inhibition of human MDA-MB-435 cells after 48 hrs by SRB assay; type: functional; settings: MDA-MB-435, 48 h
SK-MEL-5 = experiment: Growth inhibition of human SK-MEL-5 cells after 48 hrs by SRB assay; type: functional; settings: SK-MEL-5, 48 h
[17] = Growth inhibition of human OVCAR3 cells after 48 hrs by SRB assay; type: functional; settings: OVCAR-3, 48 h
[18] = Growth inhibition of human SKOV3 cells after 48 hrs by SRB assay; type: functional; settings: SK-OV-3, 48 h
786-0 = experiment: Growth inhibition of human 786-0 cells after 48 hrs by SRB assay; type: functional; settings: 786-0, 48 h
[19] = Growth inhibition of human Caki1 cells after 48 hrs by SRB assay; type: functional; settings: CAKI-1, 48 h
[20] = Growth inhibition of human RXF393 cells after 48 hrs by SRB assay; type: functional; settings: RXF 393, 48 h
[21] = Growth inhibition of human Hs 578T cells after 48 hrs by SRB assay; type: functional
[22] = Growth inhibition of human BT549 cells after 48 hrs by SRB assay; type: functional; settings: BT-549, 48 h
[23] = target: Hepatocyte growth factor receptor (Homo sapiens) (UniProt P08581); experiment: Inhibition of c-Met (unknown origin) at 10 uM
Sequence of Hepatocyte growth factor receptor (Homo sapiens) (P08581 whole entry): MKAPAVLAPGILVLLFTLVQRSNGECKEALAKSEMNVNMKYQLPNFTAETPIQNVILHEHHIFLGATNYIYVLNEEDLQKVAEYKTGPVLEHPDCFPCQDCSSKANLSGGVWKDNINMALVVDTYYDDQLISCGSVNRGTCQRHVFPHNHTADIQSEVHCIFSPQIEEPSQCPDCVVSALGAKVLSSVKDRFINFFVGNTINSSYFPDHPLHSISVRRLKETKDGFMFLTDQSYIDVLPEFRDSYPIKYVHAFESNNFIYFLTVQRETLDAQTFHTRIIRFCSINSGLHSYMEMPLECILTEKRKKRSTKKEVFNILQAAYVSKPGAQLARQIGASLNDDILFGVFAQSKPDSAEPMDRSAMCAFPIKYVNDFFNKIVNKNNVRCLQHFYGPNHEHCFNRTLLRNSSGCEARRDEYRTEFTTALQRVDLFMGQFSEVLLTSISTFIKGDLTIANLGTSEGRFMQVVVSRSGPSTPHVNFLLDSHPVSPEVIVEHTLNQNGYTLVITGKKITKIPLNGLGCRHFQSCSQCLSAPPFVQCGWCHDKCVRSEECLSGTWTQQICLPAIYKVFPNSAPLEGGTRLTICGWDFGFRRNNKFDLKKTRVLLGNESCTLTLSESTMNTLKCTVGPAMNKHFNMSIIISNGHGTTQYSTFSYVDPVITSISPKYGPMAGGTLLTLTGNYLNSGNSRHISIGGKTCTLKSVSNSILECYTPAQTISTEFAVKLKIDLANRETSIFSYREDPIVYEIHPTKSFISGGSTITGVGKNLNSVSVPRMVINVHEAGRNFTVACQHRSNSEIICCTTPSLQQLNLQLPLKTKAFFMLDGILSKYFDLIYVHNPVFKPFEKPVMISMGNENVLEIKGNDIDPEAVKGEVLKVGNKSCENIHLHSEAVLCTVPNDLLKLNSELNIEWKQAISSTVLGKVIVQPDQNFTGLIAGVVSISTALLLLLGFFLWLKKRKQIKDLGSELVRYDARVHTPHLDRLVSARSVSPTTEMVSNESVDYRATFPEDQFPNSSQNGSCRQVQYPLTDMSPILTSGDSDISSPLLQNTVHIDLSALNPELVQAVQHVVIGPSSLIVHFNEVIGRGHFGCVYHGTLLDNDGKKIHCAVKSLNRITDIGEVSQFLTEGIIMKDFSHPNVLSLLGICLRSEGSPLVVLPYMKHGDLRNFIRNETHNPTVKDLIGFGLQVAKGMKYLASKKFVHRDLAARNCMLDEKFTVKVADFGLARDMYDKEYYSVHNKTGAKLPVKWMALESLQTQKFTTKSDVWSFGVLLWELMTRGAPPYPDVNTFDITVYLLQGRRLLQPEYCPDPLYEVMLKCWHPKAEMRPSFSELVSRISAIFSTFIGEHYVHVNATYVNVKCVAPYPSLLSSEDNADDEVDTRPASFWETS

[24] = target: Aurora kinase A (Homo sapiens) (UniProt O14965); experiment: Inhibition of Aurora A (unknown origin) at 10 uM
Sequence of Aurora kinase A (Homo sapiens) (O14965 whole entry): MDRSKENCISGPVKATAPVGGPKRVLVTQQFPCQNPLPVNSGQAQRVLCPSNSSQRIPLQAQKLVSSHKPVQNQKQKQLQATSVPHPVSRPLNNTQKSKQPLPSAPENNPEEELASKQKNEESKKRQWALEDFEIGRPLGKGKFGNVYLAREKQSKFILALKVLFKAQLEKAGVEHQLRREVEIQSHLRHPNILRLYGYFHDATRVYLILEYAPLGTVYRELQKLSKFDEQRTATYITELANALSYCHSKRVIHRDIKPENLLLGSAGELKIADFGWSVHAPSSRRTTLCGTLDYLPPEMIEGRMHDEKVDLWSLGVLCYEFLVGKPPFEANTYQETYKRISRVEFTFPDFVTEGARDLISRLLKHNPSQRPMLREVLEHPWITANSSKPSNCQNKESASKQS

[25] = target: Mast/stem cell growth factor receptor Kit (Homo sapiens) (UniProt P10721); experiment: Inhibition of c-Kit (unknown origin) at 10 uM
Sequence of Mast/stem cell growth factor receptor Kit (Homo sapiens) (P10721 whole entry): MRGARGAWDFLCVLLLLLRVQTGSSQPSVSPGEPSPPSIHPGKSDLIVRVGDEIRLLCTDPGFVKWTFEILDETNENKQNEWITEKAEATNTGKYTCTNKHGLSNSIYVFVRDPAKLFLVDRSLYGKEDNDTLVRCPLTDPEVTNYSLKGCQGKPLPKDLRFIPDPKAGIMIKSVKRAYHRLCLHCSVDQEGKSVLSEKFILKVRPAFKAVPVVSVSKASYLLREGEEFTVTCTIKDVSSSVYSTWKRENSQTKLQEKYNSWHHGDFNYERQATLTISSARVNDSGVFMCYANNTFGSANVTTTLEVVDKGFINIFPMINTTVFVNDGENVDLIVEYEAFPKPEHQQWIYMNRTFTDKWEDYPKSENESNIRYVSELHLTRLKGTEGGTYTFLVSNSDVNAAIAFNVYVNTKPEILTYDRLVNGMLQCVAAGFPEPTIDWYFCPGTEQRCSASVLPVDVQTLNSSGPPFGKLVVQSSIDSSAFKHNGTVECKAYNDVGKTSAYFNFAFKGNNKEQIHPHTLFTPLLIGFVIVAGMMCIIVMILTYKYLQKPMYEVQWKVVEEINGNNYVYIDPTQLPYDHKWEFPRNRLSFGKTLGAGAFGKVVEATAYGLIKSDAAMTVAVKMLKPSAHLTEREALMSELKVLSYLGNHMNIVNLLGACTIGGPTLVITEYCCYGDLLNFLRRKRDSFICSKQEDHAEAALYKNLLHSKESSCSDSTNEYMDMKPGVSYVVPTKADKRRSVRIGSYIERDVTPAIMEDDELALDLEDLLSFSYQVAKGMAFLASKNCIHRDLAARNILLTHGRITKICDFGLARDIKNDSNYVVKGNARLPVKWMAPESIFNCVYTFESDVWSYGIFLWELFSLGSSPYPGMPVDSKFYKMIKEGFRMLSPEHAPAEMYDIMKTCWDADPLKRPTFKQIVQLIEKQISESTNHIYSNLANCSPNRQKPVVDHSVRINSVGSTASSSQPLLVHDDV

[26] = read-out: LC50 (the source's name)

`COc1ccc(Nc2nccc(Nc3ccc4[nH]ncc4c3)n2)cc1` gave an inhibition of growth at 10 µM (K562 [1]) of 95%, an inhibition of growth at 10 µM (A549) of 76% and an inhibition of growth at 10 µM (NCI-H322M) of 37%. For the same compound, the inhibition of growth at 10 µM (KM12) was 90%, the inhibition of growth at 10 µM [2] was 52% and the inhibition of growth at 10 µM [3] was 31%. It also gave an inhibition of growth at 10 µM (U-251) of 64%, an inhibition of growth at 10 µM (SK-MEL-28) of 34% and an inhibition of growth at 10 µM [4] of 54%. For the same compound, the inhibition of growth at 10 µM [5] was 48%, the inhibition of growth at 10 µM [6] was 91% and the inhibition of growth at 10 µM [7] was 62%. For the same compound, the inhibition of growth at 10 µM [8] was 68%, the inhibition of growth at 10 µM [9] was 81% and the inhibition of growth at 10 µM (MCF7) was 87%. The inhibition of growth at 10 µM (MDA-MB-231) was 51%, the inhibition of growth at 10 µM [10] was 56% and the GI50 (K562 [11]) was 2100 nM. The LC50 (K562 [11]) was greater than 100 µM, the TGI (K562 [11]) was 4.67 µM and the GI50 [12] was 3.13 µM. For the same compound, the TGI [12] was 12.9 µM, the CC50 [12, 26] was 44.5 µM and the GI50 (NCI-H23) was 2350 nM. For the same compound, the TGI (NCI-H23) was 6.27 µM, the CC50 (NCI-H23; [26]) was 87.3 µM and the GI50 (NCI-H460) was 2700 nM. It also gave an LC50 (50% lethal concentration) (NCI-H460) greater than 100 µM, a TGI (NCI-H460) of 38.2 µM and a GI50 (NCI-H522) of 1860 nM. For the same compound, the LC50 (NCI-H522) was 15.6 µM, the TGI (NCI-H522) was 4.77 µM and the GI50 [13] was 2590 nM. The LC50 [13] was 25.4 µM, the TGI [13] was 7.21 µM and the GI50 [14] was 2060 nM. For the same compound, the TGI [14] was 4.91 µM, the CC50 [14, 26] was 73.1 µM and the GI50 [15] was 3.78 µM. The LC50 (concentration killing 50% of cells) [15] was 37.1 µM, the TGI [15] was 13.8 µM and the GI50 [16] was 1920 nM. The LC50 [16] was 7.8 µM, the TGI [16] was 3.87 µM and the GI50 (MDA-MB-435) was 2100 nM. It also gave an LC50 (MDA-MB-435) of 20.1 µM, a TGI (MDA-MB-435) of 5.7 µM and a GI50 (SK-MEL-5) of 2010 nM. It also gave a TGI (SK-MEL-5) of 4.75 µM, a CC50 (SK-MEL-5; [26]) of 13.1 µM and a GI50 [17] of 3.15 µM. For the same compound, the TGI [17] was 10.6 µM, the CC50 [17, 26] was 44 µM and the GI50 [18] was 7.04 µM. The LC50 [18] was 58.8 µM, the TGI [18] was 21.7 µM and the GI50 (786-0) was 1740 nM. It also gave a TGI (786-0) of 4.75 µM, a CC50 (786-0; [26]) of 16.1 µM and a GI50 [19] of 2220 nM. It also gave a TGI [19] of 14.9 µM, a CC50 [19, 26] of 38.6 µM and a GI50 [20] of 1980 nM. It also gave an LC50 (50% lethal concentration) [20] of 24.3 µM, a TGI [20] of 6.45 µM and a GI50 [21] of 5.02 µM. The TGI [21] was greater than 100 µM, the CC50 [21, 26] was greater than 100 µM and the GI50 [22] was 3.22 µM. It also gave a TGI [22] of 12.1 µM, a CC50 [22, 26] of 34.8 µM and an inhibition [23] of 42%. The inhibition [24] was 91% and the inhibition [25] was 85%.
